Tested on: production of kynurenine in KATO-III cells
Experiment: Inhibitory activity on the production of kynurenine (IFN-γ-treated KATO-III cells, kynurenine in the culture medium quantified by absorbance at 480 nm)
Type: cell-based
Conditions: test compound at 10 μmol/L, human gastric cancer cell line KATO-III, 96 hours, read-out: inhibition rate (production of kynurenine)
Method: This assay was performed by a modification of the method described in J. Biol. Chem., vol. 263, pp. 2041-2048 (1988). For culture of the human gastric cancer cell line KATO-III, RPMI 1640 (GIBCO, 11875) supplemented with 10 volt FBS (GIBCO, 10091-148, lot. 665285) was used. One μL of a test substance in a DMSO solution was diluted with 199 μL of the culture medium and placed in wells of a 384-well plate (10 μL/well). Next, IFN-γ (Sigma, 1-3265) was added to the culture medium to a concentration of 31.25 ng/mL, and KATO-III cells were suspended at 50,000 cells/mL in the culture medium. Forty μL of the suspension was added to each well (2,000 cells/well) and incubated under a 5% CO2 atmosphere at 37° C. for 96 hours. The final concentration of DMSO was limited to 0.1 volt or less so that DMSO itself may not affect the kynurenine concentration measured by this assay. After the incubation, 10 μL of a 30 w/vt aqueous trichloroacetic acid solution was added to each well, and incubation was performed at 65° C. for 30 minutes. The plate was centrifuged at 2,500×g for 5 minutes and 15μL of the supernatant in each well was transferred into another 384-well plate. To the transferred supernatant, 15 μL of a 2 w/vt solution of p-dimethylaminobenzaldehyde in acetic acid was added, incubation was performed at 65° C. for 20 minutes and the absorbance was measured at 480 nm.
Sample: the absorbance value of the well to which a DMSO solution containing a test substance was added and in which the cells were treated with IFN-γ.
Blank: the absorbance value of the well to which DMSO not containing a test substance was added and in which the cells were treated with IFN-γ.
Control: the absorbance value of the well to which DMSO not containing a test substance was added and in which the cells were not treated with IFN-γ.
In this assay, expression of IDO in KATO-III cells is induced by IFN-γ treatment and kynurenine in the culture medium is quantified. The kynurenine concentration in a culture medium is known to increase in proportion to the enzymatic activity of intracellular IDO (for example, J. Biol. Chem., vol. 263, pp. 2041-2048 ([…])). […] The production of kynurenine is known to be inhibited by IDO inhibitors (for example, J. Clin. Invest., vol. 117, No. 5, pp. 1147-1154 […]), and thus it is speculated that Compounds (I) also have an inhibitory effect on IDO.

CC(C)CS(=O)(=O)Nc1nc2ccccc2nc1OC(c1ccncc1)C(F)(F)F (stereo not drawn) [Compound 51, 2-methyl-N-(3-(2,2,2-trifluoro-1-(pyridin-4-yl)ethoxy)quinoxalin-2-yl)propane-1-sulfonamide]
inhibition at 10 µM: ≥ 80%

COCCS(=O)(=O)Nc1nc2ccccc2nc1OC(c1cnc(C(C)=O)s1)C(F)(F)F (stereo not drawn) [Compound 74, N-(3-(1-(2-acetylthiazol-5-yl)-2,2,2-trifluoroethoxy)quinoxalin-2-yl)-2-methoxyethanesulfonamide]
inhibition at 10 µM: ≥ 80%

CCCS(=O)(=O)Nc1nc2ccccc2nc1OC(c1ccc(C#N)nc1)C(F)(F)F (stereo not drawn) [Compound 26, N-(3-(1-(6-cyanopyridin-3-yl)-2,2,2-trifluoroethoxy)quinoxalin-2-yl)propane-1-sulfonamide]
inhibition at 10 µM: ≥ 80%

CCCCS(=O)(=O)Nc1nc2ccccc2nc1OC(c1ccc(S(C)(=O)=O)nc1)C(F)(F)F (stereo not drawn) [Compound 40, N-(3-(2,2,2-trifluoro-1-(6-(methylsulfonyl)pyridin-3-yl)ethoxy)quinoxalin-2-yl)butane-1-sulfonamide]
inhibition at 10 µM: ≥ 80%

CCCS(=O)(=O)Nc1nc2ccccc2nc1OC(c1ccc(-c2cnn(C)c2)nc1)C(F)(F)F (stereo not drawn) [Compound 32, N-(3-(2,2,2-trifluoro-1-(6-(1-methyl-1H-pyrazol-4-yl)pyridin-3-yl)ethoxy)quinoxalin-2-yl)propane-1-sulfonamide]
inhibition at 10 µM: ≥ 80%

CCCS(=O)(=O)Nc1nc2ccccc2nc1OC(c1cnc(C)n1C)C(F)(F)F (stereo not drawn) [Compound 70, N-(3-(1-(1,2-dimethyl-1H-imidazol-5-yl)-2,2,2-trifluoroethoxy)quinoxalin-2-yl)propane-1-sulfonamide]
inhibition at 10 µM: ≥ 80%

CCCCS(=O)(=O)Nc1nc2ccccc2nc1OC(c1ccc2nccn2c1)C(F)(F)F (stereo not drawn) [Compound 28, N-(3-(2,2,2-trifluoro-1-(imidazo[1,2-a]pyridin-6-yl)ethoxy)quinoxalin-2-yl)butane-1-sulfonamide]
inhibition at 10 µM: ≥ 80%

CCCS(=O)(=O)Nc1nc2ccccc2nc1OC(C)c1cccnc1 (stereo not drawn) [Compound 19, N-(3-(1-(pyridin-3-yl)ethoxy)quinoxalin-2-yl)propane-1-sulfonamide]
inhibition at 10 µM: ≥ 80%

CCCS(=O)(=O)Nc1nc2ccccc2nc1OC(c1cccnc1)C1(C)CC1 (stereo not drawn) [Compound 13, N-(3-((1-methylcyclopropyl)(pyridin-3-yl)methoxy)quinoxalin-2-yl)propane-1-sulfonamide]
inhibition at 10 µM: ≥ 80%

COCCS(=O)(=O)Nc1nc2ccccc2nc1OC(c1ccc(-c2cnco2)nc1)C(F)(F)F (stereo not drawn) [Compound 73, 2-methoxy-N-(3-(2,2,2-trifluoro-1-(6-(oxazol-5-yl)pyridin-3-yl)ethoxy)quinoxalin-2-yl)ethanesulfonamide]
inhibition at 10 µM: ≥ 80%

CCCS(=O)(=O)Nc1nc2ccccc2nc1OC(c1ccc(-c2cnn(C)n2)nc1)C(F)(F)F (stereo not drawn) [Compound 64A, N-(3-(2,2,2-trifluoro-1-(6-(2-methyl-2H-1,2,3-triazol-4-yl)pyridin-3-yl)ethoxy)quinoxalin-2-yl)propane-1-sulfonamide]
inhibition at 10 µM: ≥ 80%

CCCS(=O)(=O)Nc1nc2ccccc2nc1OC(c1ccn2cc(C)nc2c1)C(F)(F)F (stereo not drawn) [Compound 53, N-(3-(2,2,2-trifluoro-1-(2-methylimidazo[1,2-a]pyridin-7-yl)ethoxy)quinoxalin-2-yl)propane-1-sulfonamide]
inhibition at 10 µM: ≥ 80%

CCCS(=O)(=O)Nc1nc2ccccc2nc1OC(CC)c1cccnc1 (stereo not drawn) [Compound 15, N-(3-(1-(pyridin-3-yl)propoxy)quinoxalin-2-yl)propane-1-sulfonamide]
inhibition at 10 µM: ≥ 80%

CCCCS(=O)(=O)Nc1nc2ccccc2nc1OC(c1ccnc(C#N)c1)C(F)(F)F (stereo not drawn) [Compound 52, N-(3-(1-(2-cyanopyridin-4-yl)-2,2,2-trifluoroethoxy)quinoxalin-2-yl)butane-1-sulfonamide]
inhibition at 10 µM: ≥ 80%

CCCS(=O)(=O)Nc1nc2ccccc2nc1OC(c1ccc(-c2noc(C)n2)nc1)C(F)(F)F (stereo not drawn) [Compound 66, N-(3-(2,2,2-trifluoro-1-(6-(5-methyl-1,2,4-oxadiazol-3-yl)pyridin-3-yl)ethoxy)quinoxalin-2-yl)propane-1-sulfonamide]
inhibition at 10 µM: ≥ 80%

CCCS(=O)(=O)Nc1nc2ccccc2nc1OC(c1ccc[n+]([O-])c1)C1(C)CC1 (stereo not drawn) [Compound 14, 3-((1-methylcyclopropyl)(3-(propylsulfonamido)quinoxalin-2-yloxy)methyl)pyridine 1-oxide]
inhibition at 10 µM: ≥ 80%

CCCC(Oc1nc2ccccc2nc1NS(=O)(=O)CCC)c1cccnc1 (stereo not drawn) [Compound 21, N-(3-(1-(pyridin-3-yl)butoxy)quinoxalin-2-yl)propane-1-sulfonamide]
inhibition at 10 µM: ≥ 80%

CCCS(=O)(=O)Nc1nc2ccccc2nc1OC(c1ccc(S(C)(=O)=O)cc1)C(F)(F)F (stereo not drawn) [Compound 25, N-(3-(2,2,2-trifluoro-1-(4-(methylsulfonyl)phenyl)ethoxy)quinoxalin-2-yl)propane-1-sulfonamide]
inhibition at 10 µM: ≥ 80%

CCCCC(Oc1nc2ccccc2nc1NS(=O)(=O)CCC)c1cccnc1 (stereo not drawn) [Compound 11, N-(3-(1-(pyridin-3-yl)pentyloxy)quinoxalin-2-yl)propane-1-sulfonamide]
inhibition at 10 µM: ≥ 80%

CCCS(=O)(=O)Nc1nc2ccccc2nc1OC(c1cccnc1)C(C)(C)F (stereo not drawn) [Compound 7, N-(3-(2-fluoro-2-methyl-1-(pyridin-3-yl)propoxy)quinoxalin-2-yl)propane-1-sulfonamide]
inhibition at 10 µM: ≥ 80%

CCCCS(=O)(=O)Nc1nc2ccccc2nc1OC(c1cc[n+]([O-])cc1)C(F)(F)F (stereo not drawn) [Compound 47, 4-(1-(3-(butylsulfonamido)quinoxalin-2-yloxy)-2,2,2-trifluoroethyl)pyridine 1-oxide]
inhibition at 10 µM: ≥ 80%

COCCS(=O)(=O)Nc1nc2ccccc2nc1OC(c1ccnc(C(C)=O)c1)C(F)(F)F (stereo not drawn) [Compound 72, N-(3-(1-(2-acetylpyridin-4-yl)-2,2,2-trifluoroethoxy)quinoxalin-2-yl)-2-methoxyethanesulfonamide]
inhibition at 10 µM: ≥ 80%

CCCS(=O)(=O)Nc1nc2cc(I)ccc2nc1OC(c1cccnc1)C(F)(F)F (stereo not drawn) [Compound 77, N-(7-iodo-3-(2,2,2-trifluoro-1-(pyridin-3-yl)ethoxy)quinoxalin-2-yl)propane-1-sulfonamide]
inhibition at 10 µM: ≥ 80%

CCCS(=O)(=O)Nc1nc2ccccc2nc1OC(c1ccc2nccn2c1)C(F)(F)F (stereo not drawn) [Compound 27, N-(3-(2,2,2-trifluoro-1-(imidazo[1,2-a]pyridin-6-yl)ethoxy)quinoxalin-2-yl)propane-1-sulfonamide]
inhibition at 10 µM: ≥ 80%

CCCS(=O)(=O)Nc1nc2ccccc2nc1OC(c1cnc(SC)nc1)C(F)(F)F (stereo not drawn) [Compound 55, N-(3-(2,2,2-trifluoro-1-(2-(methylthio)pyrimidin-5-yl)ethoxy)quinoxalin-2-yl)propane-1-sulfonamide]
inhibition at 10 µM: ≥ 80%

CCCC(Oc1nc2ccccc2nc1NS(=O)(=O)CCC)c1ccc[n+]([O-])c1 (stereo not drawn) [Compound 22, 3-(1-(3-(propylsulfonamido)quinoxalin-2-yloxy)butyl)pyridine 1-oxide]
inhibition at 10 µM: ≥ 80%

CCCS(=O)(=O)Nc1nc2cc(C#N)ccc2nc1OC(c1cccnc1)C(F)(F)F (stereo not drawn) [Compound 78, N-(7-cyano-3-(2,2,2-trifluoro-1-(pyridin-3-yl)ethoxy)quinoxalin-2-yl)propane-1-sulfonamide]
inhibition at 10 µM: ≥ 80%

— US9150569B2, “Nitrogen-containing heterocyclic compound having inhibitory effect on production of kynurenine” (KYOWA HAKKO KIRIN CO., LTD., priority 2010, dated 2015)
